No end group written: not given here.
Assays:
[1] = target: T1, membrane NEU-1 in HepG2 cells (Homo sapiens, UniProt Q99519); assay: Colocalization of fluorescent peptide with NEU-1 by confocal microscopy; assay type: cell-based; settings: fixed HepG2 cells, 0.1 μM in LDS micelles, 1 h, n = 3
T1 construct: HepG2 endogenously expresses IR and NEU-1; endogenous in cells; host or cells: HepG2 (ATCC HB-8065)
Experimental: IntPeps coupled with FITC and solubilized in LDS micelles have been incubated at 0.1 μM for 1 h with fixed HepG2 cells.
HepG2 cells were seeded onto coverslips in 24-well plates at 50,000 cells/well. After 24 h, cells were fixed with paraformaldehyde 1% (Euromedex) for 5 min followed by a second incubation with paraformaldehyde 2% for 10 min at room temperature (RT). Cells were washed twice for 5 min with PBS and permeabilized with Triton 0.2% during 5 min at RT. A total of 3% bovine serum albumin (BSA) was disposed in each well for 1 h at RT after three washes with PBS for 5 min. Cells were then incubated with NEU-1 mouse monoclonal antibody (1/200 in PBS with 3% BSA) (Santa Cruz Biotechnology) for 2 h at RT. Then, this solution was removed, and the cells were incubated with anti-mouse secondary antibody coupled with Alexa Fluor 568 (1/1000 in PBS with 3% BSA) (Invitrogen) for 2 h at RT in the dark. After washes, cells were incubated with IntPeps coupled with FITC (0.1 μM) or with FITC alone (0.1 μM) at RT in the dark. Coverslips were then mounted in a medium containing 4′,6-diamidino-2-phenylindole (Prolong gold, antifade, Invitrogen). Slides were finally observed using confocal microscopy (Zeiss LSM 710) and featured slices were analyzed with Image J software (https://imagej.net/ij/download.html).

HepG2 cells = assay: MTT cell viability assay, HepG2 cells; assay type: cell-based, human; settings: peptide 0.1 μM in LDS micelles, 3 h and 24 h, compared to control without treatment, n = 3-4
Experimental: (§1) The concentration of 0.1 μM and two incubation times, 3 h (Fig. S1, A and C) and 24 h (Fig. S1, B and D) have been tested. […] The choice of this concentration was based on the previous study by Albrecht et al. ([31]).
(§2) HepG2 cell line and COS-7^IR cells were, respectively, harvested in 96-well plates at a cell density of 80,000 cells/well and 10,000 cells/well. After 24 h, cells were incubated with IntPep-RKR or mutIntPep-RKR at 0.1 μM or only with LDS micelles during 3 h or 24 h. Then, the medium has been removed and cells were incubated in the dark during 4 h at 37 °C with a 3-(4-5-dimethylthiazol-2-yl) -2,5-diphenyltetrazolium bromide solution (MTT, Sigma, 5 mg/ml) diluted in PBS (one-sixth v/v). The medium was removed, and 100 μl of dimethyl sulfoxide were added in each well. Cell viability was measured at 570 nm with Infinite F200 Pro (TECAN) hardware using Magellan software (https://lifesciences.tecan.com/software-magellan?p=tab--2).
(§3) HepG2 cells (A,B) and COS-7 cells
(§4) overexpressing IR (C,D) were incubated with mutIntPep-RKR, IntPep-RKR (0.1 µm) or LDS
(§5) micelles for 3h (A,C) or for 24h (B,D).
(§6) ZS equipment (Malvern Panalytical, UK). Water was used as a reference dispersing medium.
(§7) Micelles sizes were expressed in volume (as the diameter of a theorical sphere in nanometer),

[2] = system: COS-7 cells overexpressing IR (COS-7^IR); assay: MTT cell viability assay, COS-7 cells overexpressing IR; assay type: cell-based, African green monkey; settings: peptide 0.1 μM in LDS micelles, 3 h and 24 h, compared to control without treatment, n = 3-4
Experimental: as §1, §2, §3, §4, §5, §6, §7

membrane NEU-1 dimers = target: T2, membrane NEU-1 dimers (Homo sapiens, UniProt Q99519); assay: NEU-1 dimerization in HepG2 cell membrane extracts (Western blot); assay type: biochemical; settings: 0.1 μM, n = 4, mean ± SEM
T2 construct: HepG2 endogenously expresses IR and NEU-1; endogenous in cells; host or cells: HepG2 (ATCC HB-8065)
Experimental: HepG2 cells grown in 75 cm^2 flasks at 80% of confluence were washed twice with cold PBS and resuspended with 1 ml cold TEM buffer (75 mM Tris, 2 mM EDTA, 12 mM MgCl2, at pH 7,5) extemporaneously completed with 1% (v/v) protease inhibitor cocktail, 10 mM NaF, and 2 mM Na3VO4. After sonication, samples were centrifuged at 600g for 10 min at 4 °C to remove unlysed cells and nuclei. Supernatants were collected and centrifuged at 20,000g for 45 min at 4 °C. Crude membrane-containing pellets were then resuspended in TEM buffer supplemented with 1% (w/v) CHAPS {3-[(3-cholamidopropyl) dimethylammonio]-1-propanesulfonate} (Sigma-Aldrich). Cell membranes were then incubated with peptides at 0.1 μM and solubilized for 3 h at 4 °C under gentle end-over-end mixing. Supernatants were recovered after a centrifugation step (20,000g, 45 min, and 4 °C). These samples were then used for Western blot analyzes.
Protein samples were diluted in Laemmli buffer (500 mM Tris, 10% (w/v) SDS, 20% saccharose (w/v), 0.5% (w/v) bromophenol blue, 10% (v/v) β-mercaptoethanol, pH 6.8) and heated for 5 min at 100 °C. […]
Chemiluminescent protein detection was done by using ECL Prime Kit (GE Healthcare, Orsay, France). […] Quantification of bands intensity has been made using Image Studio Lite software (https://www.licor.com/bio/image-studio/).

membrane NEU-1 [3] = target: T3, membrane NEU-1 (Homo sapiens, UniProt Q99519); assay: Membrane NEU-1 sialidase activity, HepG2 crude membranes (Muf-NANA); assay type: biochemical; settings: 0.1 μM, 15 min incubation, compared to mutIntPep-RKR at same concentration, n = 4-5, mean ± SEM
Experimental: HepG2 cells grown in 75 cm^2 flasks and COS-7 cell lines grown in 10 cm Petri dishes were washed twice with cold PBS and resuspended with 1 ml cold TEM buffer extemporaneously completed with 1% (v/v) protease inhibitor cocktail, 10 mM NaF, 2 mM Na3VO4. After sonication, samples were centrifuged at 600g for 10 min at 4 °C to remove nonlysed cells and nuclei. Supernatants were extracted and centrifuged at 20,000g for 45 min at 4 °C. Crude membrane-containing pellets were then resuspended in 400 μl Mes buffer (2-(N-morpholino) ethanesulfonic acid hydrate, 20 mM, pH 4.5). Protein concentration was then determined by bicinchoninic acid assay to measure sialidase activity from 50 μg of crude membrane proteins. Samples were incubated with peptides for 15 min on ice. Muf-NANA (2′-(4-MethylUmbelliFeryl)-alpha-D-N-AcetylNeuraminic Acid) (Biosynth) at a concentration of 400 μM was then added and incubated with samples for 2 h at 37 °C in the dark. The reaction was then stopped by adding Na2CO3 (Merck). A total of 150 μl of each sample were finally transferred in black 96 well plates. Emitted fluorescence was measured with Infinite F200 Pro (TECAN) hardware and Magellan software (excitation: 360 nm/emission: 465 nm) (https://lifesciences.tecan.com/software-magellan?p=tab--2).

membrane NEU-1 [4] = target: T3, membrane NEU-1; assay: Membrane NEU-1 sialidase activity, COS-7^NEU-1 crude membranes (Muf-NANA); assay type: biochemical; parameters: host or cells: COS-7 (ATCC CRL-1651) or COS-7^IR, transient transfection, 72 h; settings: COS-7^NEU-1 crude membrane, 0.1 μM, 15 min, compared to mutIntPep-RKR, n = 4-5, mean ± SEM
Source text: (§8) Plasmid encoding human IR was a gift from Dr Tarik Issad (Institut Cochin, Paris, France) and plasmid encoding human PPCA protein was provided by Pr. Alessandra d’Azzo (St Jude Children's Research Hospital, Memphis, USA). These two plasmids have been previously described ([50], [51]). Plasmid encoding human NEU-1 was purchased from ImaGenes GmbH. For cell transfections, JetPEI DNA transfection reagent was purchased from Polyplus transfection. […] HepG2 cells were harvested in 1 g/L glucose Dulbecco’s modified Eagle’s medium supplemented with 10% heat inactivated fetal bovine serum, 100 units/ml penicillin, 0,1 mg/ml streptomycin at 37 °C in a humidified atmosphere at 5% CO2. COS-7 cells were maintained in culture in 4.5 g/L glucose Dulbecco’s modified Eagle’s medium supplemented with 10% heat-inactivated fetal bovine serum, 100 units/ml penicillin, 0.1 mg/ml streptomycin at 37 °C in a humidified atmosphere at 5% CO2. COS-7 cells have been stably transfected with plasmid encoding human IR. Geneticin selection (400 μg/ml) has been made after transfection to obtain a stable cell line overexpressing IR named COS-7^IR. Geneticin (80 μg/ml) were added in the completed medium to maintain this cell line. […]

membrane NEU-1 [5] = target: T3, membrane NEU-1; assay: Membrane NEU-1 sialidase activity, COS-7^IR/NEU-1 crude membranes (Muf-NANA); assay type: biochemical; parameters: host or cells: COS-7 (ATCC CRL-1651) or COS-7^IR, transient transfection, 72 h; settings: COS-7^IR/NEU-1 crude membrane, 0.1 μM, 15 min, compared to mutIntPep-RKR, n = 4-5, mean ± SEM
Source text: as §8

C57Bl/6J mice [6] = assay: Systemic and cellular toxicity, plasma AST, CRP and LDH in mice; assay type: in vivo, mouse
Experimental: (§9) Experiments procedures were evaluated by research ethics committee of the University of Reims Champagne-Ardenne and approved by the French Ministry of Higher Education, Research and Innovation (APAFis #33891-2021111016547019). Five C57Bl/6J male and five female mice (Janvier Labs), aged 6 weeks, were maintained in a 12/12-h light/dark cycle and in a temperature and humidity-controlled environment. All mice had ad libitum access to a diet without chlorophyll (#U8959, SAFE diet) and water during the experimental period. Mice weight was measured twice per week throughout treatment. Weight gain or loss was then calculated and normalized to the weight measurement of the first week. The food intake was evaluated with weight feeders during the last week of treatment and every day. This weight was then divided by the number of mice in each cage.
(§10) Treatments have been started when mice were aged 8 weeks. Mice were under diet without chlorophyll (#U8959, SAFE diet) 2 weeks before the beginning of treatments to minimize the background noise of fluorescence measurements. LDS micelles or Cy5-IntPep-RKR were prepared as described previously and injected intraperitoneally at 100 μg/kg twice per week (100 μl).
Blood samples were collected before and after 8-weeks treatment, respectively, with LDS micelles or Cy5-IntPep-RKR by retroorbital and intracardiac pathway with sterile heparin Pasteur pipets and sterile needle in lithium heparin MiniCollect tubes (Greiner Bio-One). Animals were under isoflurane anesthesia during blood recovery. After centrifugation (3000 rpm, 10 min), plasma samples were then recovered in 1.5 ml eppendorfs and conserved at −20 °C. Finally, these samples were sent to the Institut Clinique de la Souris (Illkirch, France) to quantify several parameters as AST, CRP, and LDH. Graphics represent the percentages of observed variation between values obtained before and after 8-weeks treatment with LDS micelles or Cy5-IntPep-RKR.

C57Bl/6J mice [7] = assay: Biodistribution of fluorescent peptide in mice (fluorescence molecular tomography); assay type: in vivo, mouse; settings: 100 μg/kg i.p. twice per week
Experimental: as §9, §10
Fluorescence measurements in entire body were realized in 13 mm cassette under isoflurane anesthesia (with PerkinElmer fluorescence molecular tomography 4000) at first, second, fifth, seventh, and eighth weeks of the treatment and 15 min after injection of fluorescent peptides. Organs were collected at the end of the treatment and placed on another cassette to measure their fluorescence with the same device. To remove the potential autofluorescence of certain organs, organ fluorescence of mice receiving LDS micelle injection (twice per week at 100 μg/kg) was measured and subtracted to those of mice receiving Cy5-IntPep-RKR. The measurement of organ fluorescence has been converted in ng of peptides per gram of organ and represented in % of peptides per organ. The software TrueQuant has been used for analyzes (https://www.perkinelmer.com.cn/lab-products-and-services/resources/in-vivo-imaging-software-downloads.html?_ga=2.29909951.1041849854.1637318373-1604795059.1637318373). The geometric size of the region of interest (ROI) background was between 40 and 41.5 mm^3, and one of the ROI was between 7900 and 8100 mm^3 in the entire body. The geometric size of the ROI background was the same in organ per organ biodistribution and one of the ROI for each organ approximatively as followed: the adipose tissue (1825 mm^3), the spleen (1095 mm^3), the stomach (2555 mm^3), the bladder (594 mm^3), the muscle (1142 mm^3), the liver (3379 mm^3), and the kidneys (1946 mm^3).

C57Bl/6J mice [8] = assay: Weight and food intake during 8 weeks of treatment in mice; assay type: in vivo, mouse; settings: compared to LDS micelles
Experimental: as §9, §10

C57Bl/6J mice [9] = assay: Glycemia measurement in mice; assay type: in vivo, mouse
Experimental: as §10
A slight incision at tail was made to collect a drop of blood (<10 μl). The nonfasted blood glucose was then measured under anesthesia for all groups with Contour Plus device and reactive strips before injection and 30 min after injection of LDS micelles or Cy5-IntPep-RKR at 100 μg/kg. Data were then normalized for each group by comparison with glycemia value before injection.

[10] = 100 μg/kg i.p. twice per week for 8 weeks, versus LDS micelles group
[11] = after 8 weeks, organ fluorescence, n = 10, mean ± SEM

FITC-LC- E312LVDPVVAAGAVVTSSGIVFFS333-RKR [FITC-IntPep-RKR, IntPeps coupled with FITC and solubilized in LDS micelles]
colocalization with NEU-1 [1]: colocalization areas at the plasma membrane

ELVDPVVAAGAVVTSSGIVFFSRKR [IntPep-RKR]
cell toxicity (cell viability, MTT) (HepG2 cells): do not induce cell toxicity | cell toxicity (cell viability, MTT) [2]: do not induce cell toxicity | decrease of the formation of NEU-1 dimers (membrane NEU-1 dimers; HepG2 cell membrane extracts, 3 h at 4 °C, compared to mutIntPep-RKR): 30.7% ± 5.6% | decrease of the ratio NEU-1 dimers/NEU-1 monomers (membrane NEU-1 dimers; HepG2 cell membranes, normalized to mutIntPep-RKR condition): 42.4% ± 7.3% | decrease of membrane NEU-1 sialidase activity (membrane NEU-1 [3]): 32.6% ± 5.7% | decrease of membrane NEU-1 sialidase activity (membrane NEU-1 [4]): 35.3% ± 7.6% | decrease of membrane NEU-1 sialidase activity (membrane NEU-1 [5]): 18.1% ± 2.9%

H-C(Cy5)-E312LVDPVVAAGAVVTSSGIVFFSRKR333-NH2 [Cy5-IntPep-RKR, IntPeps coupled with cyanine-5, injected in LDS micelles]
plasma aspartate transaminase (AST) activity (C57Bl/6J mice [6]; [10]): No significant difference | plasma expression level of C-reactive protein (CRP) (C57Bl/6J mice [6]; [10]): No significant difference | plasma lactate dehydrogenase (LDH) activity (C57Bl/6J mice [6]; [10]): No significant difference | decrease of CRP level (C57Bl/6J mice [6]; 100 μg/kg i.p. twice per week, comparing data before and after 8-week treatment, mean ± SEM): 21.11% ± 3.1% | toxicity and inflammation (C57Bl/6J mice [6]; 8-week treatment, two injections per week at 100 μg/kg): did not induce toxicity and inflammation | whole body fluorescence distribution (C57Bl/6J mice [7]; 15 min after injection, weeks 1,2,5,7 and 8): well distributed in the whole organism | % of peptides per organ, white adipose tissue (C57Bl/6J mice [7]; after 8 weeks, organ fluorescence minus autofluorescence, n = 10, mean ± SEM): 29.2% ± 9% | % of peptides per organ, bladder (C57Bl/6J mice [7]; [11]): 18.52% ± 5.7% | % of peptides per organ, kidneys (C57Bl/6J mice [7]; [11]): 5.33% ± 2.1% | % of peptides per organ, liver (C57Bl/6J mice [7]; [11]): 6.13% ± 2.5% | % of peptides per organ, muscle (C57Bl/6J mice [7]; [11]): 17 ± 4.25% | % of peptides per organ, spleen (C57Bl/6J mice [7]; [11]): 17.05% ± 3.7% | weight (C57Bl/6J mice [8]; 100 μg/kg i.p. twice per week, 8 weeks, n = 10 per group): do not induce modification of weight | food intake (C57Bl/6J mice [8]; last week of 8-week treatment, n = 6): do not impair the food intake | increase of blood glucose after peptide injection (C57Bl/6J mice [9]; C57Bl/6J mice without fasting, isoflurane anesthesia, 30 min after i.p. injection at 100 μg/kg, compared to before injection, n = 10, mean ± SEM): about 44.5% ± 10.4% | blood glucose level, mice fasted for 4 h or fed (C57Bl/6J mice [9]; C57Bl/6J mice, 8 weeks of treatment at 100 μg/kg twice per week, versus LDS micelles group, n = 10 per group): no difference of blood glucose level

ELVDPVVVAIAVVTSSIIAFFSRKR [mutIntPep-RKR]
cell toxicity (cell viability, MTT) (HepG2 cells): do not induce cell toxicity | cell toxicity (cell viability, MTT) [2]: do not induce cell toxicity

Source: publication PMC11167521, “Inhibition of neuraminidase-1 sialidase activity by interfering peptides impairs insulin receptor activity in vitro and glucose homeostasis in vivo” (The Journal of Biological Chemistry, 2024)
